Measured values taken from ChEMBL document CHEMBL1158983, “Toxins Produced by the Dogwood Anthracnose Fungus Discula sp” (1991).
Calls of active or inactive are those of the source. The rule behind the calls is not given here.

Legend:
Assay type in all cases: functional
Nasturtium officinale = assay: Phytotoxicity against watercress assessed as leaf necrotic lesions at 100 ug by detached leaf spot method
Sida spinosa = assay: Phytotoxicity against Prickly sida assessed as leaf necrotic lesions at 100 ug by detached leaf spot method
[1] = test system: Curtobacterium flaccumfaciens; assay: Antimicrobial activity against Corynebacterium flaccumfaciens at 500 ug/disk; details: for zone of inhibition at 500 µg/disc: read-out: IZ
Sorghum = assay: Phytotoxicity against Sorghum assessed as leaf necrotic lesions at 100 ug by detached leaf spot method
Aspergillus flavus = assay: Antimicrobial activity against Aspergillus flavus at 500 ug/disk; details: for zone of inhibition at 500 µg/disc: read-out: IZ
[2] = test system: Pectobacterium carotovorum; assay: Antimicrobial activity against Erwinia carotovora at 500 ug/disk; details: for zone of inhibition at 500 µg/disc: read-out: IZ
Ambrosia artemisiifolia = assay: Phytotoxicity against ragweed assessed as leaf necrotic lesions at 100 ug by detached leaf spot method
Escherichia coli = assay: Antimicrobial activity against Escherichia coli at 500 ug/disk; details: for zone of inhibition at 500 µg/disc: read-out: IZ
[3] = test system: Agrobacterium tumefaciens; assay: Antimicrobial activity against Agrobacterium tumefaciens at 500 ug/disk; details: for zone of inhibition at 500 µg/disc: read-out: IZ
Cornus florida [4] = assay: Phytotoxicity against Dogwood NCPV 100 assessed as leaf necrotic lesions at 50 ug by detached leaf spot method
Sorghum halepense = assay: Phytotoxicity against Johnsongrass assessed as leaf necrotic lesions at 100 ug by detached leaf spot method
Datura stramonium = assay: Phytotoxicity against Jimsonweed assessed as leaf necrotic lesions at 100 ug by detached leaf spot method
Senna obtusifolia = assay: Phytotoxicity against Sicklepod assessed as leaf necrotic lesions at 100 ug by detached leaf spot method
Cornus florida [5] = assay: Phytotoxicity against Dogwood NCPV 102 assessed as leaf necrotic lesions at 50 ug by detached leaf spot method
Chenopodium album = assay: Phytotoxicity against Lamb's quarters assessed as leaf necrotic lesions at 100 ug by detached leaf spot method
Colletotrichum acutatum = assay: Antimicrobial activity against Colletotrichum acutatum at 500 ug/disk; details: for zone of inhibition at 500 µg/disc: read-out: IZ
Cornus florida [6] = assay: Phytotoxicity against Dogwood NCPV 101 assessed as leaf necrotic lesions at 50 ug by detached leaf spot method
Convolvulaceae = assay: Phytotoxicity against Morning glory assessed as leaf necrotic lesions at 100 ug by detached leaf spot method
Penicillium chrysogenum = assay: Antimicrobial activity against Penicillium notatum at 500 ug/disk; details: for zone of inhibition at 500 µg/disc: read-out: IZ

Structure (SMILES)	Activity (Nasturtium officinale)	Activity (Sida spinosa)	Activity [1]	Activity (Sorghum)	Activity (Aspergillus flavus)	Activity [2]	Activity (Ambrosia artemisiifolia)	Activity (Escherichia coli)	Activity [3]	Activity (Cornus florida [4])	Activity (Sorghum halepense)	Activity (Datura stramonium)	Activity (Senna obtusifolia)	Activity (Cornus florida [5])	Activity (Chenopodium album)	Activity (Colletotrichum acutatum)	Activity (Cornus florida [6])	Activity (Convolvulaceae)	Activity (Penicillium chrysogenum)	zone of inhibition at 500 µg/disc [1]	other results
CC(=O)Oc1cc(O)c2c(c1)C[C@H](C)OC2=O	31 mm2	34 mm2	inactive	24 mm2	inactive	inactive	30 mm2	inactive	inactive	2 mm2	24 mm2	18 mm2	14 mm2	1 mm2	6 mm2	inactive	1 mm2	13 mm2	inactive		
O=C(O)c1ccc(O)cc1 [PARABEN]	17 mm2	31 mm2		19 mm2			15 mm2			11 mm2	22 mm2	12 mm2	10 mm2	5 mm2	9 mm2		10 mm2	15 mm2		9 mm	zone of inhibition at 500 µg/disc (Aspergillus flavus): 0 mm; zone of inhibition at 500 µg/disc [2]: 0 mm; zone of inhibition at 500 µg/disc (Escherichia coli): 5 mm; zone of inhibition at 500 µg/disc [3]: 0 mm; zone of inhibition at 500 µg/disc (Colletotrichum acutatum): 0 mm; zone of inhibition at 500 µg/disc (Penicillium chrysogenum): 0 mm
CC(=O)Oc1ccc(C(=O)O)cc1CC=C(C)C	48 mm2	36 mm2		73 mm2			38 mm2			51 mm2	51 mm2	22 mm2	18 mm2	42 mm2	8 mm2		23 mm2	19 mm2		10 mm	zone of inhibition at 500 µg/disc (Aspergillus flavus): 5 mm; zone of inhibition at 500 µg/disc [2]: 4 mm; zone of inhibition at 500 µg/disc (Escherichia coli): 0 mm; zone of inhibition at 500 µg/disc [3]: 6 mm; zone of inhibition at 500 µg/disc (Colletotrichum acutatum): 6 mm; zone of inhibition at 500 µg/disc (Penicillium chrysogenum): 5 mm
C[C@H]1Cc2cc(O)cc(O)c2C(=O)O1	36 mm2	40 mm2	inactive	40 mm2	inactive	inactive	60 mm2	inactive	inactive	7 mm2	34 mm2	24 mm2	20 mm2	10 mm2	14 mm2	inactive	14 mm2	24 mm2	inactive		
O=C1CC[C@@H](O)c2cccc(O)c21	14 mm2	18 mm2	inactive	7 mm2	inactive	inactive	12 mm2	inactive	inactive	12 mm2	13 mm2	6 mm2	2 mm2	13 mm2	5 mm2	inactive	5 mm2	4 mm2	inactive		
CC(C)=CCc1cc(C(=O)O)ccc1O	56 mm2	42 mm2		75 mm2			36 mm2			38 mm2	46 mm2	31 mm2	22 mm2	24 mm2	23 mm2		14 mm2	28 mm2		5 mm	zone of inhibition at 500 µg/disc (Aspergillus flavus): 4 mm; zone of inhibition at 500 µg/disc [2]: 5 mm; zone of inhibition at 500 µg/disc (Escherichia coli): 0 mm; zone of inhibition at 500 µg/disc [3]: 8 mm; zone of inhibition at 500 µg/disc (Colletotrichum acutatum): 8 mm; zone of inhibition at 500 µg/disc (Penicillium chrysogenum): 6 mm
